Target: T1, P-glycoprotein (P-gp) (Homo sapiens, UniProt P08183)
T1 construct: gene ABCB1; P-gp membranes (Pgp-Glo assay system)
Assay: Pgp-Glo ATPase stimulation at […] (membranes)
Type: biochemical

T1 sequence (P08183 whole entry): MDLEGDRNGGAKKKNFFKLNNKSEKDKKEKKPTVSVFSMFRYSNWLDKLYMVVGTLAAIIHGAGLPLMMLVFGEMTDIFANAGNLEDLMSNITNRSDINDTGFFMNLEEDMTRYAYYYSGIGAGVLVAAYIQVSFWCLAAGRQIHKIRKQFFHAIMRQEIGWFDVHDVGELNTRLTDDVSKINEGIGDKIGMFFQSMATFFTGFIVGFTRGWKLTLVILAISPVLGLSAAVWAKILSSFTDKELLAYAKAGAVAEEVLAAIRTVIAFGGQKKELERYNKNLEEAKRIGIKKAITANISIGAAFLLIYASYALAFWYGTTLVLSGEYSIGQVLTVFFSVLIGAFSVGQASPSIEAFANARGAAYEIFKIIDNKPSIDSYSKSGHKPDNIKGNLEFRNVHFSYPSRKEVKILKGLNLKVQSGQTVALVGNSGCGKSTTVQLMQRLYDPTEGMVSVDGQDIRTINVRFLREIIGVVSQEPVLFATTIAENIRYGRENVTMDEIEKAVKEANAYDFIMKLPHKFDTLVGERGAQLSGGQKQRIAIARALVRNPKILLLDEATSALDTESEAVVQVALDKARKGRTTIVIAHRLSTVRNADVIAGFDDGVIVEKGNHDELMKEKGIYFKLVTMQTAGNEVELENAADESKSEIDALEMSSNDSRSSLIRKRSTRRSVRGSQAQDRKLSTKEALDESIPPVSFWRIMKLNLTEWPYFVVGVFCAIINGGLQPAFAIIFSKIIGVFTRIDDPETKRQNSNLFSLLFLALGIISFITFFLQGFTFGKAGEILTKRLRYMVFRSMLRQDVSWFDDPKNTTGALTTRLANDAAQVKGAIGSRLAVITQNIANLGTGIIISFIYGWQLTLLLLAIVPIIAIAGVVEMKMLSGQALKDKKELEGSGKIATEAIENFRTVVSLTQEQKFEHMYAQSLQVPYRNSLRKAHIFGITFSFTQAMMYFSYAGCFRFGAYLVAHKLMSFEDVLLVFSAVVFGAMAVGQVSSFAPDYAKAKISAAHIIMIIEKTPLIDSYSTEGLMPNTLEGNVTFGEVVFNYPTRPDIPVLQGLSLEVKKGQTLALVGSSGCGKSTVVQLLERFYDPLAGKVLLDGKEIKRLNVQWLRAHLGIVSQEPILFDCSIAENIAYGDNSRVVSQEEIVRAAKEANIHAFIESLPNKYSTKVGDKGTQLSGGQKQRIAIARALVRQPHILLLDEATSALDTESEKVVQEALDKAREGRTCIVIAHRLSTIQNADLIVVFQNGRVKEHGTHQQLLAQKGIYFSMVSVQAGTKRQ

CC[C@]1(O)C[C@H]2CN(CCc3c([nH]c4ccccc34)[C@@](C(=O)OC)(c3cc4c(cc3OC)N(C=O)[C@H]3[C@@](O)(C(=O)OC)[C@H](OC(C)=O)[C@]5(CC)C=CCN6CC[C@]43[C@@H]65)C2)C1 [vincristine]
Pgp-Glo ATPase stimulation at 2 μM (membranes): verapamil and vincristine induced an obvious increase in activity of P-gp ATPase

Reference: PMC4980604 (Scientific Reports, 2016)
